According to patent publication US20180186815A1, “PHARMACEUTICAL COMPOSITIONS, METHODS FOR THEIR PREPARATION AND THEIR USE IN THE TREATMENT OF CANCER” (Urifer Ltd., priority 2016, published 2018):
Read-outs that look alike come from different tables or passages of the source.

How the values were obtained:
Format in all cases: cell-based
[1] = Viability of FS non malignant fibroblastic cells, XTT test; settings: FS cells (non-malignant fibroblastic cell line), Control DMSO = 100%, read-out: percentage of viable cells, FS
Description: (§1) The effect of the compounds Z522-XXX on the growth profile of cancer cells which express Fer was tested. The cells that were tested were: the colon cancer cell lines HT29 and HCT 116, RKO. The effect of each of the compounds on FS cells, a non malingnant fibroblastic cell line, was also studied.
(§2) Generally, cells were seeded in 96 wells microplates and were left to grow untreated overnight. Each of the compounds was dissolved in DMSO and was then added to each well in a final concentration of 5 μM. The concentration of DMSO in each well was 0.4% v/v. Untreated cells and cells subjected to 0.4% DMSO alone, served as controls. The percentage of viable cells in each well was determined 96 hours after compounds addition, using the XTT test (Berridge, M. V. et al, 2005).

[2] = test system: colon cancer cell line HT29; assay: Growth profile / viability of HT29 colon cancer cells, XTT test; settings: Homo sapiens, HT-29, 96 h, Control DMSO = 100%, read-out: percentage of viable cells, HT29
Description: as §1, §2

[3] = test system: colon cancer cell line HCT 116; assay: Growth profile / viability of HCT116 colon cancer cells, XTT test; settings: Homo sapiens, HCT-116, 96 h, Control DMSO = 100%, read-out: percentage of viable cells, HCT116
Description: as §1, §2

[4] = test system: colon cancer cell line RKO; assay: Growth profile / viability of RKO colon cancer cells, XTT test; settings: 96 h, Control DMSO = 100%, second RKO column, read-out: percentage of viable cells, RKO
Description: as §1, §2

| SMILES | viability at 96 h, 5 µM ([1]; first FS column) [%] | viability at 96 h, 5 µM ([1]; second FS column) [%] | viability at 5 µM ([2]; first HT29 column) [%] | viability at 5 µM ([2]; second HT29 column) [%] | viability at 5 µM ([3]; first HCT116 column) [%] | viability at 5 µM ([3]; second HCT116 column) [%] | viability at 5 µM [4] [%] |
| --- | --- | --- | --- | --- | --- | --- | --- |
| CC(C)c1ccc(-c2cn3nc(N4CCC(C(=O)N5CCCN(C)CC5)CC4)sc3n2)cc1 [Compound Z522-0224, 6-(4-isopropylphenyl)-2-{4-[(4-methyl-1,4-diazepan-1-yl)carbonyl]piperidin-1-yl}imidazo[2,1-b][1,3,4]thiadiazole] | 60 | 67 | 0 | 0 | 0 |  |  |
| CCN(CC)CCN(CC)C(=O)C1CCN(c2nn3cc(-c4ccc(Cl)cc4)nc3s2)CC1 [Compound Z522-0199, 1-[6-(4-chlorophenyl)imidazo[2,1-b][1,3,4]thiadiazol-2-yl]-N-[2-(diethylamino)ethyl]-N-ethylpiperidine-4-carboxamide] | 19 | 21 |  | 1 |  |  |  |
| CN(C)CCNC(=O)CN1CCN(C(=O)C2CCN(c3nn4cc(-c5ccc(Cl)cc5)nc4s3)CC2)CC1 [Compound Z522-0218, 2-[4-({1-[6-(4-chlorophenyl)imidazo[2,1-b][1,3,4]thiadiazol-2-yl]piperidin-4-yl}carbonyl)piperazin-1-yl]-N-[2-(dimethylamino)ethyl] acetamide] | 82 | 84 | 3 | 4 | 51 | 19 |  |
| CN1CCC(N(C)C(=O)C2CCN(c3nn4cc(-c5ccc(Cl)cc5)nc4s3)CC2)CC1 [Compound Z522-0202, 1-[6-(4-chlorophenyl)imidazo[2,1-b][1,3,4]thiadiazol-2-yl]-N-methyl-N-(1-methylpiperidin-4-yl)piperidine-4-carboxamide] | 73 | 69 | 1 | 0 | 5 |  |  |
| CC(C)c1ccc(-c2cn3nc(N4CCC(C(=O)N5CCCCC5CN5CCCC5)CC4)sc3n2)cc1 (stereo not drawn) [Compound Z522-0235, 6-(4-isopropylphenyl)-2-(4-{[2-(pyrrolidin-1-ylmethyl)piperidin-1-yl]carbonyl}piperidin-1-yl)imidazo[2,1-b][1,3,4]thiadiazole] |  | 14 |  |  | 1 | 1 |  |
| CN1CCC(N2CCN(C(=O)C3CCN(c4nn5cc(-c6ccc(Cl)cc6)nc5s4)CC3)CC2)CC1 [Compound Z522-0207, 6-(4-chlorophenyl)-2-(4-{[4-(1-methylpiperidin-4-yl)piperazin-1-yl]carbonyl}piperidin-1-yl)imidazo[2,1-b][1,3,4]thiadiazole] | 3 | 16 | 3 | 0 | 0 | 4 |  |
| O=C(C1CCN(c2nn3cc(-c4ccc(Cl)cc4)nc3s2)CC1)N1CCCCC1CN1CCCC1 (stereo not drawn) [Compound Z522-0212, 6-(4-chlorophenyl)-2-(4-{[2-(pyrrolidin-1-ylmethyl)piperidin-1-yl]carbonyl}piperidin-1-yl)imidazo[2,1-b][1,3,4]thiadiazole] |  | 1 | 1 | 0 | 2 |  |  |
| CN(C)CCN1CCN(C(=O)C2CCN(c3nn4cc(-c5ccc(Cl)cc5)nc4s3)CC2)CC1 [Compound Z522-0206] | 2 | 6 |  |  | 1 |  |  |
| CC(C)c1ccc(-c2cn3nc(N4CCC(C(=O)N(C)C5CCN(C)CC5)CC4)sc3n2)cc1 [Compound Z522-0225, 1-[6-(4-isopropylphenyl)imidazo[2,1-b][1,3,4]thiadiazol-2-yl]-N-methyl-N-(1-methylpiperidin-4-yl)piperidine-4-carboxamide] | 65 | 28 |  |  | 1 | 0 |  |
| CCN(CC)CCN(CC)C(=O)C1CCN(c2nn3cc(-c4ccc(C(C)C)cc4)nc3s2)CC1 [Compound Z522-0222, N-[2-(diethylamino)ethyl]-N-ethyl-1-[6-(4-isopropylphenyl)imidazo[2,1-b][1,3,4]thiadiazol-2-yl]piperidine-4-carboxamide] | 56 | 56 |  |  | 1 |  |  |
| CC(C)c1ccc(-c2cn3nc(N4CCC(C(=O)N5CCN(C6CCN(C)CC6)CC5)CC4)sc3n2)cc1 [Compound Z522-0230, 6-(4-isopropylphenyl)-2-(4-{[4-(1-methylpiperidin-4-yl)piperazin-1-yl]carbonyl}piperidin-1-yl)imidazo[2,1-b][1,3,4]thiadiazole] | 22 | 39 |  |  | 2 | 0 |  |
| O=C(C1CCN(c2nn3cc(-c4ccc(Cl)cc4)nc3s2)CC1)N1CCCCC1CCN1CCOCC1 (stereo not drawn) [Compound Z522-0211, 6-(4-chlorophenyl)-2-(4-{[2-(2-morpholin-4-ylethyl)piperidin-1-yl]carbonyl}piperidin-1-yl)imidazo[2,1-b][1,3,4]thiadiazole] | 75 | 81 | 64 | 60 | 72 | 61 |  |
| CCN1CCN(CC2CCN(C(=O)C3CCN(c4nn5cc(-c6ccc(Cl)cc6)nc5s4)CC3)CC2)CC1 [Compound Z522-0221, 6-(4-chlorophenyl)-2-[4-({4-[(4-ethylpiperazin-1-yl)methyl]piperidin-1-yl}carbonyl)piperidin-1-yl]imidazo[2,1-b][1,3,4]thiadiazole] |  |  |  |  | 1 | 1 |  |
| CCN1CCN(CC2CCN(C(=O)C3CCN(c4nn5cc(-c6ccc(C(C)C)cc6)nc5s4)CC3)CC2)CC1 [Compound Z522-0244, 2-[4-({4-[(4-ethylpiperazin-1-yl)methyl]piperidin-1-yl}carbonyl)piperidin-1-yl]-6-(4-isopropylphenyl) imidazo[2,1-b][1,3,4]thiadiazole] |  |  | 1 | 0 |  | 0 | 0 |
| CN(C)CCN(Cc1ccco1)C(=O)C1CCN(c2nn3cc(-c4ccc(Cl)cc4)nc3s2)CC1 [Compound Z522-0220, 1-[6-(4-chlorophenyl)imidazo[2,1-b][1,3,4]thiadiazol-2-yl]-N-[2-(dimethylamino)ethyl]-N-(2-furylmethyl)piperidine-4-carboxamide] | 61 | 49 | 0 |  | 1 | 3 |  |
| CC(C)c1ccc(-c2cn3nc(N4CCC(C(=O)N5CCCCC5CCN5CCOCC5)CC4)sc3n2)cc1 (stereo not drawn) [Compound Z522-0234, 6-(4-isopropylphenyl)-2-(4-{[2-(2-morpholin-4-ylethyl)piperidin-1-yl]carbonyl}piperidin-1-yl)imidazo[2,1-b][1,3,4]thiadiazole] | 62 | 105 | 12 | 7 | 60 | 54 |  |
